Read-outs that look alike come from different tables or passages of the source.

The source of these data is article PMC8813674 (Computational and Structural Biotechnology Journal, 2022).

Data set [1] has as its system porcine epidemic diarrhea virus (PEDV). As to conditions: for SI (=CC50/EC50): CC50 in eGFP-Vero cells / EC50 against mCherry-PEDV.
Data set [2] shares this test system. As to the kind of experiment: microbe, parasite or virus in culture. The conditions noted are these: 15 h, read-out: EC50 ± SD.

On to `CCC(CC)COC(=O)[C@H](C)N[P@](=O)(OC[C@H]1O[C@@](C#N)(c2ccc3c(N)ncnn23)[C@H](O)[C@@H]1O)Oc1ccccc1` [Remdesivir], for which the “Antiviral effect (mCherry expression and syncytia formation)” value in data set [1] (50 µM, 15 h post-infection) was “completely inhibited”. Further, the “SI (=CC50/EC50)” value in data set [1] and in data set [1] (listed as remdesivir) was greater than 37 each time. In addition, the EC50 in data set [2] was found to be 2.71 ± 0.7 µM.

A word on the EC50: it is the concentration needed to bring the measured effect to its halfway point.
